# From patent publication US8921373B2, “Compounds having TRPV1 antagonistic activity and uses thereof” (Shionogi & Co., Ltd., priority 2010, dated 2014)
# Assays:
# [1] = Measurement of body temperature increase (rectal body temperature); assay type: in vivo, rat; settings: Crl/SD rats, oral, 1 mg/mL at 10 mL/kg
# Protocol: Test Animals: Selection of rats (Crl/SD rats, 7 weeks, male) for this study was based on rectal body temperature measured during the morning of the day of dosing. In addition, animals selected for this study were acclimated to both the rectal measurement procedure and to being handled and dosed to minimize spontaneous, stress-induced, increases in body temperature. The study was conducted in the animal care laboratories where the room temperature and humidity were kept. The rats were free to move and food and water during the study. Each rat was numbered with color line on the tail, housed in each cage and permitted the normal range of movement. Immediately before each body temperature was measured, they transferred to a single cage at each measurement. To reduce stress which affected the body temperature, the rats were covered with towels at the measurement. The thermistor probe was then carefully inserted into the rectum of each rat and left in place until the value on the digital display had stabilized.
# Assays: On the day before dosing, rectal body temperatures were measured at 9:00, 10:00, 11:00, 12:30, 13:30, 14:30 and 15:30 to familiarize the animals with the measurement procedure prior to administration of the test or control treatments. The rats were also dosed by oral gavage without vehicle at 12:30 to acclimate and familiarized the animals with the handling and dosing procedure.
# On the day of dosing, only rats whose rectal body temperatures were within the range of 37.0° C. to 37.7° C. were selected for this study. Rectal body temperatures were measured at 9:00, 10:00 and 11:00. Rats whose rectal body temperatures were over 37.9° C. at 10:00, and were outside the range of 37.0° C. to 37.7° C. at 11:00 were excluded from the study. The selected rats were divided to several groups based on their rectal body temperatures at 11:00. Rectal body temperatures of the selected rats were measured again at 12:30, and any rats whose rectal body temperature was 38.0° C. or greater were excluded from the study.
# Following the group assignment, test compounds or vehicle was administrated to the rats. Each test compound was dissolved in 0.5% methylcellurose and the final concentration of the compound was adjusted to 1 mg/mL. Test compound was orally administrated in a volume 10 mL/kg once. 10 mL/kg of vehicle (0.5% methylcellurose) was administered to the vehicle group. The rectal body temperatures were measured 0.5, 1 and 2 hrs after the administration. The study was conducted in the animal care laboratories where the room temperature and humidity were kept.
# Body temperature increase (ΔTb) was calculated from the difference from an average of the vehicle group at each time point.
# human recombinant TRPV1 = human recombinant TRPV1 (Homo sapiens (Human), UniProt Q8NER1); test: TRPV1 Capsaicin-Based Assay (Protocol 2, TRPV1/CHO cells, Fluo-4, FLIPR); assay type: cell-based; settings: TRPV1/CHO cells, capsaicin 100 nM final; read-out: IC50 value by the Capsaicin-Based Assay
# Sequence of human recombinant TRPV1 (Q8NER1 whole entry): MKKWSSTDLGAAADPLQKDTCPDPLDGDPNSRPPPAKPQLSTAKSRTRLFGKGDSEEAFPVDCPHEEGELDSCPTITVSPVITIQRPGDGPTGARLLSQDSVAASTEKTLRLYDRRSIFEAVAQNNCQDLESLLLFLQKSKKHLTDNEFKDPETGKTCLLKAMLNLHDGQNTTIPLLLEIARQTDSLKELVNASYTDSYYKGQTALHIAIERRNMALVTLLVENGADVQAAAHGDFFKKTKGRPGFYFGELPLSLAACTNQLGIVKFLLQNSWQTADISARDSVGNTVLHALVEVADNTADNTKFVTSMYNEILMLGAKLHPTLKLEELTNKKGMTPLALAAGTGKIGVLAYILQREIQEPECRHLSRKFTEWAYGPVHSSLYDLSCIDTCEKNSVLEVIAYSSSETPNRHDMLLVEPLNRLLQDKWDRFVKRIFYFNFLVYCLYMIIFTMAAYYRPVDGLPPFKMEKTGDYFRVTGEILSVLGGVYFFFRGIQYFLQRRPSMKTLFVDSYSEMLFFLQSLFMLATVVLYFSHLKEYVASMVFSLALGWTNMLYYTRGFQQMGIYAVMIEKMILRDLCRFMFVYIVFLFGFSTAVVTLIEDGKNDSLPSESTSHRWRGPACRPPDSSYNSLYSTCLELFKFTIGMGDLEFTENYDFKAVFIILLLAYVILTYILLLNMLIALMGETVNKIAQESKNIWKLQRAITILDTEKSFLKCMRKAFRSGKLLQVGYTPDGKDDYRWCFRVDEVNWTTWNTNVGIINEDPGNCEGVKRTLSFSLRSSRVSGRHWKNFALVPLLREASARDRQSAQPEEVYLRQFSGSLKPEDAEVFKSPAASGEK
# Method in brief: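 CHO cells stably expressing human TRPV1 were loaded with 3 μM Fluo-4 for 1 h, then given compounds in HBSS/1 mM CaCl2/20 mM HEPES pH 7.4 with 1% DMSO for 2 min before 100 nM capsaicin (final). FLIPR fluorescence recorded over the full course; curves fitted.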
structure (smiles),measurement,setting,value
"Cc1cc(NC(=O)N2CCC(F)(c3ncc(C[C@H](O)CO)cc3F)CC2)ccc1C(F)(F)F [ACQ, (S)-4-(5-(2,3-dihydroxypropyl)-3-fluoropyridin-2-yl)-4-fluoro-N-(3-methyl-4-(trifluoromethyl)phenyl)piperidine-1-carboxamide]",Body temperature increase,[1],less than 0.5 °C
same,IC50,human recombinant TRPV1,≤ 50 nM
